The test system of assay [1] is vacuolar type H^+ -ATPase. As to the kind of experiment: Inhibition of vacuolar type H^+ -ATPase proton transport. In kind it is biochemical. The settings on record: microsomes from mouse peritoneal macrophages; acridine orange uptake; concentration 1×10^-6 M; pH 7.0. As to the method: Test 1 (Inhibition of vacuolar type H^+ -ATPase proton transport): Test Method (a) Preparation of microsomes from mouse peritoneal macrophages Seven-week-old male ddY mice were injected intraperitoneally with 2 ml of 3% thioglycolate medium. After 3-5 days, the mice were decapitated, and the peritoneal macrophages were obtained by peritoneal lavage with 5-6 ml of Hanks' balanced salt solution (HBSS). The cells were washed twice with cold HBSS. Vesicles were prepared from the cells, homogenized in a Douncee homogenizer (20 strokes) in 10 ml of 250 mM sucrose, 5 mM Tris, 1 mM EGTA, 1 mM KHCO3 and 1 mM dithiothreitol, pH 7.0, at 4° C. After an initial centrifugation (1000× g for 5 minutes), the supernatant was centrifuged 6000× g for 15 minutes) to remove mitochondria and lysosomes. The supernatant was centrifuged at 42000× g for 30 minutes, and microsomal pellet was collected and stored at -80° C. (b) Measurement of proton transport Proton transport was assayed with a dual-wavelength spectrophotometer by monitering uptake of acridine orange (Reference 540 nm, Measurement 492 nm) [H. C. Blair, J. Cell. Biol., 102, 1164 (1986)] with aliquot of membrane vesicles suspended in […] of assay buffer containing 150 mM KCl, 10 mM bis-tris-propane, 2 mM MgCl2, […], […] oligomycin and test compounds (concentration: 1×10^-6 M), pH 7.0. The reaction was initiated by addition of 1 mM ATP. Results were expressed as the percent of control.

The test system of assay [2] is PTH-induced bone resorption (calvariae from Wistar rats). As to the kind of experiment: Bone organ culture: inhibition of PTH-induced bone resorption. The class given is cell-based. To be noted: 144 h; Wistar rat calvariae; 10^-8 M human PTH (1-34); concentration 1×10^-6 M; six days. As to the method:
Test 2 (Bone organ culture) Test Method […] In control dishes, PTH was not added. Control and PTH control were exposed to an equivalent concentration of the vehicle. Six days later, the concentration of calcium ((Ca]) in the medium was measured by methylxylenol blue method and the percentage of inhibition of PTH-induced bone resorption was calculated according to following formula [formula] Cp: [Ca] in PTH control dishes CD: [Ca] in the test compound dishes C0 : [Ca] in control dishes

Structures are written as SMILES. Counter-ions that a name gives are not always drawn.

Take `C=CCc1cnc2c(NC(=O)c3c(Cl)cccc3Cl)cccc2c1Sc1ncc[nH]1` [28 (dihydrochloride), 8-(2,6-Dichlorobenzoylamino)-4-(imidazol-2-ylthio)-3-allylquinoline]: the “Inhibition (%) of vacuolar type H^+ -ATPase proton transport” value (“Inhibition (%) of vacuolar type H^+” for short) in assay [1] came out at 94%. In assay [2], the inhibition at 1 µM is 100%.

Consider `Cl.N#Cc1cnc2c(NC(=O)c3c(Cl)cccc3Cl)cccc2c1Cn1ccnc1` [52 (hydrochloride), 3-cyano-8-(2,6-dichlorobenzoylamino)-4-(imidazol-1-ylmethyl)quinoline hydrochloride], for which, in assay [1], the “Inhibition (%) of vacuolar type H^+” value stood at 100%. Also, in assay [2], testing at 1 µM gave an inhibition of 100%.

As for `C=Cc1cnc2c(NC(=O)c3c(Cl)cccc3Cl)cccc2c1CC(=O)NCc1ccccn1` [71-(2), 8-(2,6-dichlorobenzoylamino)-4-[(pyridin-2-ylmethyl)carbamoylmethyl]-3-vinylquinoline], the “Inhibition (%) of vacuolar type H^+” value in assay [1] was found to be 93%. The compound further displayed an inhibition at 1 µM in assay [2] of 100%.

Take `O=C(Nc1cccc2c(-n3cccn3)ccnc12)c1c(Cl)cccc1Cl` [85-(2) (free), 8-(2,6-Dichlorobenzoylamino)-4-(pyrazol-1-yl)quinoline]: the “Inhibition (%) of vacuolar type H^+” value in assay [1] stood at 97%. In assay [2], at 1 µM the inhibition was 100%.

Turning to `C#Cc1cnc2c(NC(=O)c3c(Cl)cccc3Cl)cccc2c1` [Example 5, 8-(2,6-dichlorobenzoylamino)-3-ethynylquinoline], in assay [1], the “Inhibition (%) of vacuolar type H^+” value is 100%. The compound further showed an inhibition at 1 µM in assay [2] of 98%.

The term inhibition denotes the drop in the measured response relative to a control, in per cent. The low end stands for a response near the control, the high end for a response far below the control.

Values taken from patent US6008230A, “Quinoline compounds as H^+ -ATPases” (Fujisawa Pharmaceutical Co., Ltd., priority 1995, dated 1999).
